Counter-ions that a name gives are not always drawn.
Tests used:
ZR-75-1 cells = assay: Caspase cascade activation (N-(Ac-DEVD)-N'-ethoxycarbonyl-R110 fluorogenic substrate) in ZR-75-1 cells; format: cell-based, Human; conditions: ZR-75-1, 48 h incubation; for EC50: Homo sapiens, caspase activation potency; for ZR Ratio 48 hr: caspase activity: ratio of net RFU of test compound to control
Method: (§1) Human breast cancer cell lines T-47D and ZR-75-1 were grown according to media component mixtures designated by American Type Culture Collection +10% FCS (Invitrogen Corporation, Life Technologies division), in a 5% CO2-95% humidity incubator at 37° C. T-47D and ZR-75-1 cells were maintained at a cell density between 50 and 80% confluency at a cell density of 0.1 to 0.6×10^6 cells/ml. Cells were harvested at 600× g and resuspended at 0.65×10^6 cells/ml into appropriate media +10% FCS. An aliquot of […] of cells was added to a well of a […] microtiter plate containing 2.5 μl of a 10% DMSO in RPMI-1640 media solution containing 0.16 to 100 μM of 4-(3-methoxyanilino)-2-(2-pyridinyl)-6-(trifluoromethyl)pyrimidine or other test compound (0.016 to 10 μM final). An aliquot of 22.5 μl of cells was added to a well of a 384-well microtiter plate containing 2.5 μl of a 10% DMSO in RPMI-1640 media solution without test compound as the control sample. The samples were mixed by agitation and then incubated at 37° C. for 48 h in a 5% CO2-95% humidity incubator. After incubation, the samples were removed from the incubator and 25 μl of a solution containing 14 μM of N-(Ac-DEVD)-N′-ethoxycarbonyl-R110 fluorogenic substrate (Cytovia, Inc.; WO99/18856), 20% sucrose (Sigma), 20 mM DTT (Sigma), 200 mM NaCl (Sigma), 40 mM Na PIPES buffer pH 7.2 (Sigma), and 500 μg/ml lysolecithin (Calbiochem) was added. The samples were mixed by agitation and incubated at room temperature. Using a fluorescent plate reader (Model SpectraMax Gemini, Molecular Devices), an initial reading (T=0) was made approximately 1-2 min after addition of the substrate solution, employing excitation at 485 nm and emission at 530 nm, to determine the background fluorescence of the control sample. After the 3 h incubation, the samples were read for fluorescence as above (T=3 h).
(§2) The Relative Fluorescence Unit values (RFU) were used to calculate the sample readings as follows:
(§3) RFU(T=3h)−Control RFU(T=0)=Net RFU(T=3h)
(§4) The activity of caspase cascade activation was determined by the ratio of the net RFU value for 4-(3-methoxyanilino)-2-(2-pyridinyl)-6-(trifluoromethyl)pyrimidine or other test compound to that of control samples. The EC50 (nM) was determined by a sigmoidal dose-response calculation (Prism 2.0, GraphPad Software Inc.).

T-47D cells = assay: Caspase cascade activation (N-(Ac-DEVD)-N'-ethoxycarbonyl-R110 fluorogenic substrate) in T-47D cells; format: cell-based, Human; conditions: 48 h incubation; for EC50: Homo sapiens, T47D, caspase activation potency, read-out: T47 EC50; for T47 Ratio 48 hr: caspase activity: ratio of net RFU of test compound to control
Method: as §1, §2, §3, §4

SMILES	EC50 (ZR-75-1 cells) [nM]	EC50 (T-47D cells) [nM]	ZR Ratio 48 hr (ZR-75-1 cells)	T47 Ratio 48 hr (T-47D cells)
COc1cccc(CNc2cc(C(F)(F)F)nc(-c3cccnc3)n2)c1 [Example 104, 4-(3-Methoxybenzylamino)-2-(3-pyridinyl)-6-(trifluoromethyl)pyrimidine]	> 5000	> 5000	1.7	1.1
Oc1ccc(Cl)c(Nc2cc(C(F)(F)F)nc(-c3cccnc3)n2)c1 [Example 106, 4-(2-Chloro-5-hydroxyanilino)-2-(3-pyridinyl)-6-(trifluoromethyl)pyrimidine]	982	183	2.4	9.0
Oc1ccc(Cl)c(Nc2cc(C(F)(F)F)nc(-c3ccncc3)n2)c1 [Example 107, 4-(2-Chloro-5-hydroxyanilino)-2-(4-pyridinyl)-6-(trifluoromethyl)pyrimidine]	123	63	5.3	8.0
Cc1cc(Nc2c(C)cccc2C)nc(-c2ccccn2)n1 [Example 108, 4-(2,6-Dimethylanilino)-6-methyl-2-(2-pyridinyl)pyrimidine]	4370	> 5000	2.4	0.9
COc1cccc(Nc2cc(-c3ccccn3)nc(-c3ccccn3)n2)c1 [Example 109, 4-(3-Methoxyanilino)-2,6-di(2-pyridinyl)pyrimidine]	2590	1500	3.6	3.9
COc1ccc(OC)c(Nc2cc(-c3ccccn3)nc(-c3ccccn3)n2)c1 [Example 110, 4-(2,5-Dimethoxyanilino)-2,6-di(2-pyridinyl)pyrimidine]	648	576	11.6	8.9
COc1ccc(C)c(Nc2cc(-c3ccccn3)nc(-c3ccccn3)n2)c1 [Example 111, 4-(5-Methoxy-2-methylanilino)-2,6-di(2-pyridinyl)pyrimidine]	2570	1420	3.9	4.0
COc1ccc(C)cc1Nc1cc(-c2ccccn2)nc(-c2ccccn2)n1.Cl [Example 112, 4-(2-Methoxy-5-methylanilino)-2,6-di(2-pyridinyl)pyrimidine]	2370	1860	2.9	3.3
COc1ccc(Cl)c(Nc2cc(-c3ccccn3)nc(-c3ccccn3)n2)c1.Cl [Example 113, 4-(2-Chloro-5-methoxyanilino)-2,6-di(2-pyridinyl)pyrimidine]	2730	1430	4.1	4.4
Cc1ccc(C)c(Nc2cc(-c3ccccn3)nc(-c3ccccn3)n2)c1 [Example 114, 4-(2,5-Dimethylanilino)-2,6-di(2-pyridinyl)pyrimidine]	2800	2540	3.7	3.6

Continued, in another order:

EC50 (ZR-75-1 cells) [nM]	EC50 (T-47D cells) [nM]	SMILES	ZR Ratio 48 hr (ZR-75-1 cells)	T47 Ratio 48 hr (T-47D cells)
59	112	Cc1ccc(C)c(Nc2cc(C(F)(F)F)nc(-c3ccncc3)n2)c1 [Example 115, 4-(2,5-Dimethylanilino)-2-(4-pyridinyl)-6-(trifluoromethyl)pyrimidine hydrochloride]	11.6	14.2
73	71	COc1ccc(C)cc1Nc1cc(C(F)(F)F)nc(-c2ccncc2)n1 [Example 116, 4-(2-Methoxy-5-methylanilino)-2-(4-pyridinyl)-6-(trifluoromethyl)pyrimidine]	8.8	13.7
276	138	Cc1ccc(O)cc1Nc1cc(C(F)(F)F)nc(-c2cccnc2)n1 [Example 117, 4-(5-Hydroxy-2-methylanilino)-2-(3-pyridinyl)-6-(trifluoromethyl)pyrimidine]	6.3	11.3
31	34	Cc1ccc(O)cc1Nc1cc(C(F)(F)F)nc(-c2ccncc2)n1 [Example 118, 4-(5-Hydroxy-2-methylanilino)-2-(4-pyridinyl)-6-(trifluoromethyl)pyrimidine]	9.9	8.8
2400	2690	Cc1ccc(C#N)c(Nc2cc(C(F)(F)F)nc(-c3cccnc3)n2)c1 [Example 120, 4-(2-Cyano-5-methylanilino)-2-(3-pyridinyl)-6-(trifluoromethyl)pyrimidine]	4.5	8.2
380	480	Cc1cc(C)cc(Nc2cc(C(F)(F)F)nc(-c3cccnc3)n2)c1 [Example 121, 4-(3,5-Dimethylanilino)-2-(3-pyridinyl)-6-(trifluoromethyl)pyrimidine]	9.9	11.2
192	44	COc1cc(Nc2cc(C(F)(F)F)nc(-c3cccnc3)n2)cc(OC)c1.Cl [Example 122, 4-(3,5-Dimethoxyanilino)-2-(3-pyridinyl)-6-(trifluoromethyl)pyrimidine hydrochloride]	10.1	11.1
725	763	Cc1ccc(Cl)c(Nc2cc(C(F)(F)F)nc(-c3cccnc3)n2)c1 [Example 123, 4-(2-Chloro-5-methylanilino)-2-(3-pyridinyl)-6-(trifluoromethyl)pyrimidine]	15.8	21.2
688	720	COc1cc(Nc2cc(C(F)(F)F)nc(-c3cccnc3)n2)cc(C(F)(F)F)c1 [Example 124, 4-(3-Methoxy-5-trifluoromethylanilino)-2-(3-pyridinyl)-6-(trifluoromethyl)pyrimidine]	16.3	19.9
2240	3470	COc1ccc(Cl)c(Nc2cc(C(F)(F)F)nc(-c3ccc(C(F)(F)F)nc3)n2)c1 [Example 125, 4-(2-Chloro-5-methoxyanilino)-2-[6-(trifluoromethyl)-3-pyridinyl]-6-(trifluoromethyl)pyrimidine]	8.1	4.4
353	222	COc1ccc(Br)cc1Nc1cc(C(F)(F)F)nc(-c2cccnc2)n1 [Example 126, 4-(5-Bromo-2-methoxyanilino)-2-(3-pyridinyl)-6-(trifluoromethyl)pyrimidine]	5.9	12.0
550	279	COc1ccc(Br)c(Nc2cc(C(F)(F)F)nc(-c3cccnc3)n2)c1 [Example 127, 4-(2-Bromo-5-methoxyanilino)-2-(3-pyridinyl)-6-(trifluoromethyl)pyrimidine]	5.3	10.3
> 5000	> 5000	Cc1cc(Nc2cc(C(F)(F)F)nc(-c3cccnc3)n2)cc(C(F)(F)F)c1 [Example 128, 4-[3-Methyl-5-(trifluoromethyl)anilino]-2-(3-pyridinyl)-6-(trifluoromethyl)pyrimidine]	1.5	1.4
